Data taken from patent US20040024024A1, “Aromatic sulfone hydroxamates and their use as protease inhibitors” (priority 2001, published 2004).
pIC50: −log10 of the molar value.

Legend:
Test in all cases: In vitro MMP inhibition, IC50 determination (fluorogenic substrate I)
Type in all cases: biochemical
Human recombinant MMP-1 = molecular target: T1, Human recombinant MMP-1 (Homo sapiens, UniProt P03956)
T1 construct: made in house; host or cells: MMP-1-transfected HT-1080 cells (spent media)
T1 sequence (P03956 100-469): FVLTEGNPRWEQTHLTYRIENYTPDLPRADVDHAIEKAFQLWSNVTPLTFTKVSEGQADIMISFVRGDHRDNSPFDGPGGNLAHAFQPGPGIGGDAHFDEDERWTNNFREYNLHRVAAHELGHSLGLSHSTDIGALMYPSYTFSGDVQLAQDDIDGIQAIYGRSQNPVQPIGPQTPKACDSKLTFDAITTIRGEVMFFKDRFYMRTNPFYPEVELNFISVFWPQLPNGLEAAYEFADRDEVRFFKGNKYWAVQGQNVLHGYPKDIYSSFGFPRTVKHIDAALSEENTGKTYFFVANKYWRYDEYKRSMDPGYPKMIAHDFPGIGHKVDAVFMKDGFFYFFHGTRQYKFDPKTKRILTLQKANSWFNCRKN
How it was run: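 APMA- or trypsin-activated enzyme, purified from spent media of transfected HT-1080 cells, incubated at room temperature with 4 μM MCA-Pro-Leu-Gly-Leu-Dpa-Ala-Arg-NH2 and graded inhibitor in Tris buffer pH 7.5 (10 mM CaCl2, 0.05% Brij). Cleavage read by fluorescence (ex 328/em 415 nm); IC50 from fluorescence reduction versus inhibitor concentration.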

Human recombinant MMP-14 = molecular target: T2, Human recombinant MMP-14 (Homo sapiens, UniProt P50281)
T2 construct: The catalytic domain enzyme was expressed in E. coli inclusion bodies, solubilized in urea; made in house
How it was run: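 Catalytic-domain MMP-14, expressed in E. coli and refolded, activated with APMA or trypsin; compounds incubated at room temperature with 4 μM fluorogenic substrate I (MCA-PLGL-Dpa-AR-NH2) in Tris/NaCl/CaCl2 buffer, pH 7.5. Fluorescence at ex 328/em 415 nm; IC50 from loss of fluorescence versus inhibitor concentration.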

Human recombinant MMP-13 = molecular target: T3, Human recombinant MMP-13 (Homo sapiens, UniProt P45452)
T3 construct: made in house; host or cells: baculovirus / insect cells
How it was run: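 Fluorescence at 415 nm (excitation 328 nm) reports Gly-Leu cleavage of 4 μM quenched methoxycoumarin peptide substrate I. Human recombinant MMP-13, activated by trypsin or APMA, was incubated at room temperature with varied inhibitor concentrations in pH 7.5 Tris/NaCl/CaCl2 buffer; IC50 derived from reduced fluorescence.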

Human recombinant MMP-9 = molecular target: T4, Human recombinant MMP-9 (Homo sapiens, UniProt P14780)
T4 construct: made in house; host or cells: MMP-9-transfected HT1080 cells (spent media)
T4 sequence (P14780 107-707 limits assumed): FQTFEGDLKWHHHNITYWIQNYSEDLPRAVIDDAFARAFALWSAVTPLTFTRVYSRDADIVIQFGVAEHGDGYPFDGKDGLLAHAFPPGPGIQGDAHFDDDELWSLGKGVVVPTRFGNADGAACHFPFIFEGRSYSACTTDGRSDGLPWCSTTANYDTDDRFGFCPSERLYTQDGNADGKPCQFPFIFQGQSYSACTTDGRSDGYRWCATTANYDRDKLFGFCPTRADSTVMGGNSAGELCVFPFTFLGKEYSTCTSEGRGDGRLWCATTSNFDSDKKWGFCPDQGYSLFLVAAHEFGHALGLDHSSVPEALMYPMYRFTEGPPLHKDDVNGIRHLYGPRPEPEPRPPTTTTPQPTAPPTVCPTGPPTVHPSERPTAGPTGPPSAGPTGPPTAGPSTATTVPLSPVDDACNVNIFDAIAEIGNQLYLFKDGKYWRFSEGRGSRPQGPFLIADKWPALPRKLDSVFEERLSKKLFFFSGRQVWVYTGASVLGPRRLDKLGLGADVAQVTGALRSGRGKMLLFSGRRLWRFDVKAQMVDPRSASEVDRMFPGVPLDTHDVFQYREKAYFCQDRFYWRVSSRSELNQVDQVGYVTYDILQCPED
How it was run: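 MMP-9 proenzyme purified from transfected HT1080 cell media, activated with APMA or trypsin. Compound dilutions in pH 7.5 Tris/NaCl/CaCl2 buffer with 0.05% polyoxyethylene 23 lauryl ether, incubated at room temperature with 4 μM MCA/Dpa substrate I. IC50 from fluorescence loss (ex 328, em 415 nm) versus inhibitor concentration.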

Human recombinant MMP-2 = molecular target: T5, Human recombinant MMP-2 (Homo sapiens, UniProt P08253)
T5 construct: made in house; host or cells: MMP-2-transfected p2AHT2 cells
T5 sequence (P08253 110-660): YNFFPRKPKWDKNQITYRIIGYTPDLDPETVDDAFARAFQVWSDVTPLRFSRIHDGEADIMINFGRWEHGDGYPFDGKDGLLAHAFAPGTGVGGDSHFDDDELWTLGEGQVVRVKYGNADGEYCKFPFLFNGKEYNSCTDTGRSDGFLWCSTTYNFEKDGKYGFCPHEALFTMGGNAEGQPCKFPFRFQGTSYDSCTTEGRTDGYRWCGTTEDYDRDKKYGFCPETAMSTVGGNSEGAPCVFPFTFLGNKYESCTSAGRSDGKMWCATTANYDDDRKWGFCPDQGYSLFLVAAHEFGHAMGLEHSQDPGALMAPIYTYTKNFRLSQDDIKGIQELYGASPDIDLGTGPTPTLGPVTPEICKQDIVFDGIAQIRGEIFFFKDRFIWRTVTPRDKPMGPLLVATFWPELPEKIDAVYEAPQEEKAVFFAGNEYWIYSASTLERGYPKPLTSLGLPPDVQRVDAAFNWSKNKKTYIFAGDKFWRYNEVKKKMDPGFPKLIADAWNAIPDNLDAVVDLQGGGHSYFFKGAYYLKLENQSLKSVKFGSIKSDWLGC
How it was run: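 APMA- or trypsin-activated recombinant MMP-2 was incubated at room temperature with serial inhibitor dilutions in Tris buffer pH 7.5 (100 mM NaCl, 10 mM CaCl2, 0.05% Brij), with DMSO from 1% stocks, and 4 μM substrate I. Cleavage was read by fluorescence at 328/415 nm; IC50 was taken from the loss of fluorescence versus inhibitor concentration.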

[1] = value outside parentheses (Ki in parenthesis)
[2] = substrate (I) 4 μM, room temperature, values not in parenthesis

Structure (SMILES)	pIC50 (Human recombinant MMP-1; [1])	pIC50 (Human recombinant MMP-14; [1])	pIC50 (Human recombinant MMP-13; [1])	pIC50 (Human recombinant MMP-9; [1])	pIC50 (Human recombinant MMP-2; [1])	pIC50 (Human recombinant MMP-1; value outside parenthesis)	pIC50 (Human recombinant MMP-14; value outside parenthesis)	pIC50 (Human recombinant MMP-13; value outside parenthesis)	pIC50 (Human recombinant MMP-9; value outside parenthesis)	pIC50 (Human recombinant MMP-2; value outside parenthesis)	other results
O=C(NO)C1(S(=O)(=O)c2ccc(OCCOCc3cccc(OC(F)(F)F)c3)cc2)CCOCC1 [Example 660]	–	–	–	–	–	–	–	–	–	–	pIC50 (Human recombinant MMP-1; value outside parentheses): 5.13; pIC50 (Human recombinant MMP-14; value outside parentheses): 5.46; pIC50 (Human recombinant MMP-13; value outside parentheses): 8.85; pIC50 (Human recombinant MMP-9; value outside parentheses): 7.08; pIC50 (Human recombinant MMP-2; value outside parentheses): 7.73
O=C(NO)C1(S(=O)(=O)c2ccc(OCCC3CCCCC3)cc2)CCOCC1 [Example 478]	< 5.00	5.84	8.30	7.47	9.00	–	–	–	–	–	–
O=C(NO)C1(S(=O)(=O)c2ccc(OCCc3cccc(-c4ccc(F)c(F)c4)c3)cc2)CCOCC1 [Example 122]	–	–	–	–	–	< 5.00	< 5.00	8.72	5.12	6.12	–
COc1ccc(OCCCOc2ccc(S(=O)(=O)C3(C(=O)NO)CCOCC3)cc2)cc1 [Example 447]	< 5.00	5.87	8.70	7.91	8.05	–	–	–	–	–	–
O=C(NO)C1(S(=O)(=O)c2ccc(OCCCc3nnc(CC4CCCCC4)o3)cc2)CCOCC1 [Example 262]	–	–	–	–	–	< 5.00	< 5.00	8.52	5.77	6.93	–
CN(C)C(=O)c1cccc(OCCOc2ccc(S(=O)(=O)C3(C(=O)NO)CCOCC3)cc2)c1 [Example 666]	–	–	–	–	–	–	–	–	–	–	pIC50 (Human recombinant MMP-1; value outside parentheses): < 5.00; pIC50 (Human recombinant MMP-14; value outside parentheses): < 5.00; pIC50 (Human recombinant MMP-13; value outside parentheses): 7.76; pIC50 (Human recombinant MMP-9; value outside parentheses): 5.35; pIC50 (Human recombinant MMP-2; value outside parentheses): 8.82
O=C(NO)C1(S(=O)(=O)c2ccc(OCCCc3nc(-c4cccc(OC(F)(F)F)c4)no3)cc2)CCOCC1 [Example 266]	–	–	–	–	–	< 5.00	< 5.00	8.04	6.69	6.41	–
CC(C)c1ccc(-c2nnc(CCCOc3ccc(S(=O)(=O)C4(C(=O)NO)CCOCC4)cc3)o2)cc1 [Example 247]	–	–	–	–	–	5.44	< 5.00	8.96	6.47	6.35	–
Cc1cccc(-c2noc(CCCOc3ccc(S(=O)(=O)C4(C(=O)NO)CCOCC4)cc3)n2)c1 [Example 238]	–	–	–	–	–	< 5.00	< 5.00	8.92	5.93	7.10	–
O=C(NO)C1(S(=O)(=O)c2ccc(OCCCc3nnc(-c4ccc(Cl)cc4)o3)cc2)CCOCC1 [Example 260]	–	–	–	–	–	5.94	< 5.00	8.74	6.41	7.88	–
CC(C)(C)C1CCN(S(=O)(=O)CCCOc2ccc(S(=O)(=O)C3(C(=O)NO)CCOCC3)cc2)CC1 [Example 310]	< 5.00	< 5.00	8.52	5.70	7.49	–	–	–	–	–	–
O=C(NO)C1(S(=O)(=O)c2ccc(OCCCc3nc(-c4cccc(Cl)c4Cl)no3)cc2)CCOCC1 [Example 213]	–	–	–	–	–	< 5.00	< 5.00	8.66	5.66	7.26	–
O=C(NO)C1(S(=O)(=O)c2ccc(OCCCS(=O)(=O)N3CCc4ccccc4C3)cc2)CCOCC1 [Example 332]	5.61	< 5.00	8.59	6.88	8.44	–	–	–	–	–	–
O=C(NO)C1(S(=O)(=O)c2ccc(OCCOCc3ccncc3)cc2)CCOCC1 [Example 516]	–	–	–	–	–	–	–	–	–	–	pIC50 (Human recombinant MMP-1; value outside parentheses): < 5.00; pIC50 (Human recombinant MMP-14; value outside parentheses): 5.03; pIC50 (Human recombinant MMP-13; value outside parentheses): 8.02; pIC50 (Human recombinant MMP-9; value outside parentheses): 6.92; pIC50 (Human recombinant MMP-2; value outside parentheses): 7.38
O=C(NO)C1(S(=O)(=O)c2ccc(OC3CCOCC3)cc2)CCOCC1 [Example 480]	5.38	5.85	7.96	7.22	7.74	–	–	–	–	–	–
COCCN1CCC(C(=O)NO)(S(=O)(=O)c2ccc(OCCCCC(=O)c3ccc(OC)cc3)cc2)CC1 [Example 245]	–	–	–	–	–	< 5.00	< 5.00	9.70	7.21	8.07	–
Cc1ccccc1-c1nnc(CCCOc2ccc(S(=O)(=O)C3(C(=O)NO)CCOCC3)cc2)o1 [Example 32, tetrahydro-N-hydroxy-4-[[4-[3-[5-(2-methylphenyl)-1,3,4-oxadiazol-2-yl]propoxy]phenyl]sulfonyl]-2H-pyran-4-carboxamide]	–	–	–	–	–	–	–	–	–	–	pIC50 (Human recombinant MMP-1; [2]): < 5.00; pIC50 (Human recombinant MMP-14; [2]): < 5.00; pIC50 (Human recombinant MMP-13; [2]): 9.10; pIC50 (Human recombinant MMP-9; [2]): 5.39; pIC50 (Human recombinant MMP-2; [2]): 6.66
CC(C)(C)c1ccc(C(=O)CCCCOc2ccc(S(=O)(=O)C3(C(=O)NO)CCOCC3)cc2)cc1 [Example 327]	< 5.00	< 5.00	9.05	5.28	7.29	–	–	–	–	–	–
COc1ccc(C(=O)C(C)CCOc2ccc(S(=O)(=O)C3(C(=O)NO)CCOCC3)cc2)cc1 (stereo not drawn) [Example 306]	< 5.00	< 5.00	8.77	6.73	7.03	–	–	–	–	–	–
COc1ccc(C(=O)C(C)CCCOc2ccc(S(=O)(=O)C3(C(=O)NO)CCOCC3)cc2)cc1 (stereo not drawn) [Example 26, tetrahydro-N-hydroxy-4-[[4-[[5-(4-methyloxyphenyl)-4-methyl-5-oxopentyl]oxy]phenyl]sulfonyl]-2H-pyran-4-carboxamide]	–	–	–	–	–	–	–	–	–	–	pIC50 (Human recombinant MMP-1; [2]): < 5.00; pIC50 (Human recombinant MMP-14; [2]): < 5.00; pIC50 (Human recombinant MMP-13; [2]): 8.47; pIC50 (Human recombinant MMP-9; [2]): 5.35; pIC50 (Human recombinant MMP-2; [2]): 7.28
O=C(NO)C1(S(=O)(=O)c2ccc(OCCCc3cc(-c4ccc(F)c(F)c4)cs3)cc2)CCOCC1 [Example 580]	–	–	–	–	–	–	–	–	–	–	pIC50 (Human recombinant MMP-1; value outside parentheses): < 5.00; pIC50 (Human recombinant MMP-14; value outside parentheses): < 5.00; pIC50 (Human recombinant MMP-13; value outside parentheses): 9.22; pIC50 (Human recombinant MMP-9; value outside parentheses): 6.38; pIC50 (Human recombinant MMP-2; value outside parentheses): 6.87
O=C(NCCCOc1ccc(S(=O)(=O)C2(C(=O)NO)CCN(C3CC3)CC2)cc1)c1ccc(OC(F)(F)F)cc1 [Example 208]	–	–	–	–	–	< 5.00	< 5.00	9.22	5.18	6.64	–
COc1ccc(-c2noc(CCCOc3ccc(S(=O)(=O)C4(C(=O)NO)CCOCC4)cc3)n2)cc1 [Example 237]	–	–	–	–	–	< 5.00	< 5.00	9.15	5.95	7.37	–
O=C(NCCCOc1ccc(S(=O)(=O)C2(C(=O)NO)CCOCC2)cc1)c1cccnc1 [Example 385]	5.36	< 5.00	8.48	< 5.00	6.60	–	–	–	–	–	–
CCCCCc1ccc(-c2nnc(CCCOc3ccc(S(=O)(=O)C4(C(=O)NO)CCOCC4)cc3)o2)cc1 [Example 316]	5.57	< 5.00	7.87	6.16	5.55	–	–	–	–	–	–
CC(C)(COc1ccc(S(=O)(=O)C2(C(=O)NO)CCOCC2)cc1)CS(=O)(=O)Cc1cccc(OC(F)(F)F)c1 [Example 440]	< 5.00	5.60	9.00	6.85	8.40	–	–	–	–	–	–
O=C1N(CCCOc2ccc(S(=O)(=O)C3(C(=O)NO)CCOCC3)cc2)CCN1c1ccc(C(F)(F)F)cc1 [Example 193]	–	–	–	–	–	5.23	< 5.00	8.17	6.56	6.51	–
